In patent US8772230B2, “Niacin and/or trigonelline as a muscle stimulant” (DSM IP Assets B.V., priority 2009, dated 2014):
Counter-ions that a name gives are not always drawn. Like-named read-outs stand apart in the source and are kept apart here. Marks after values point to notes of the source that are not given here.

Experiments:
Female C57B1/6 mice [1] = details: three weeks
Source text: The gastrocnemius muscle from one hindlimb of the animals was removed to induce compensatory hypertrophy in the plantaris and soleus muscles by multiple mechanisms. This model increases the muscle weight under muscle load/training. It simulates the human condition of an average human who is physically active or an athlete to support skeletal muscle function during exercise.
(§1) Female C57B1/6 mice were delivered at a weight of 18-20 g and acclimatized to the facilities for a period of one week. At the beginning of the study the animals were randomized into two groups (10 animals per group).
The animals were anesthetized and the left hindlimb of the animals was fixed. A small incision was made through the skin over the gastrocnemius muscle. The complete gastrocnemius muscle and its tendons were exposed. Both heads of the gastrocnemius muscle were carefully dissected from the underlying intact muscles and care was taken not to rupture nerves and vessels. The skin was closed with a silk and the animals were returned separately into their cages. […] All animals received an analgesic. Animals were treated for three weeks by gavage with trigonelline-hydrochloride at a daily dosage of 300 mg/kg BW and the control group received vehicle.

Female C57B1/6 mice [2] = tested on: Female C57B1/6 mice
Experimental: To test the effect of trigonelline in non-trained animals, we performed a maximal endurance test after a treatment period of three weeks.
Female C57B1/6 mice were delivered at a weight of 18-20 g and acclimatized to the facilities for a period of one week. At the beginning of the study the animals were randomized into two groups (10 animals per group). All mice were housed separately and had access to feed and water ad libidum. Animals were treated for three weeks by gavage with trigonelline-hydrochloride at a daily dosage of 300 mg/kg/BW and the control group received vehicle.
For acclimatization, animals were placed on the treadmill for 5 minutes after two weeks. The maximal endurance test was performed two day before the section of the animals.

Female C57B1/6 mice [3] = details: three weeks tail suspension
Source text: To extend our in vitro and in vivo results we were also interested in testing the effects of trigonelline during skeletal muscle unloading (atrophy conditions). Therefore we conducted a second in vivo study were the hindlimbs of the animals were unloaded to induce skeletal muscle atrophy.
Tail suspension leads to skeletal muscle atrophy in the unloaded hindlimbs of the animals.
as §1
Thereafter the groups were placed in special cages and the hindlimbs were unloaded (tail suspension) for a duration of three weeks. All mice were housed separately and had access to feed and water ad libidum. Animals were treated for three weeks by gavage with trigonelline-hydrochloride at a daily dosage of 300 mg/kg/BW and the control group received vehicle.

[4] = tested on: C2C12 mouse myoblast cells; details: 10 μg/ml trigonelline monohydrate, 24 h, vs DMSO control
Experimental: C2C12 cells were seeded on 96 well collagen-I plates (1600 cells/well) in growth medium (Dulbecco's modified Eagle's medium (DMEM) supplemented with 10% FBS, 2 mM L-Glutamine, 1 mM pyruvate, 50 IU/ml penicillin, 50 ug/ml streptavidin) until it reaches 100% confluency, approximately 3 days. […] Final DMSO concentration was standardized to 0.5% in all wells. Cells were cultured at 37° C., with 5% CO2.
Cells were fixed with 3.7% formaldehyde solution (37% formaldehyde diluted in growth medium, sterile filtered before used) for 10 min. at room temperature, and washed twice with 1×DPBS (1× Dulbecco's Phosphate Buffered Saline). After permeabilization with 0.1% TritonX-100 (diluted in 1×DPBS) for 2 min. the samples were blocked with 1×DPBS plus 2% BSA for 1 h. For myocyte labelling, the cells were labelled with 1:20 anti-alpha-myosin heavy chain antibody (MF-20) for 1 hour. The samples were washed with 1×DPBS and fluorescently labelled with secondary antibody (1:250 Alexa 488 IgG antimouse secondary antibody plus 1:2000 Hoechst in 1×DPBS) for 1 h. Finally, the cells were washed twice with 1×DPBS and plates were sealed for imaging on the ArrayScan® HCS Reader.
For image analysis myosin labelled myotubes were quantified on the ArrayScan HCS Reader using BioApplication Morphology Explorer.V2. Myocytes were selected with Object Area larger than 500 and Object Total Intensity greater than 1000.

[5] = 300 mg/kg BW daily by gavage, computer tomography
[6] = 300 mg/kg BW daily by gavage, non-operated leg
[7] = 300 mg/kg/BW daily by gavage, three weeks, untrained mice
[8] = 300 mg/kg/BW daily by gavage, computer tomography

Compound: C[n+]1cccc(C(=O)[O-])c1 [Trigonelline-hydrochloride, trigonelline-hydrochloride]
- Muscle cross-sectional area - non operated leg (Female C57B1/6 mice [1]; [5]): 32.15 mm^2
- Muscle cross-sectional area - operated leg (Female C57B1/6 mice [1]; [5]): 23.72 mm^2
- Total leg cross-sectional area - non operated leg (Female C57B1/6 mice [1]; [5]): 35.05 mm^2
- Total leg cross-sectional area - operated leg (Female C57B1/6 mice [1]; [5]): 26.79 mm^2
- Gastrocnemius-Plantaris-Soleus muscle weight (whole leg)/body weight (non-operated leg) (Female C57B1/6 mice [1]; [6]): 5.50 mg/g
- M. gastrocnemius wet weight (non-operated leg) (Female C57B1/6 mice [1]; [6]): 99.3 mg
- M. gastrocnemius wet weight/body weight (non-operated leg) (Female C57B1/6 mice [1]; [6]): 4.57 mg/g
- M. plantaris wet weight (non-operated leg) (Female C57B1/6 mice [1]; [6]): 13 mg
- M. plantaris wet weight/body weight (non-operated leg) (Female C57B1/6 mice [1]; [6]): 0.60 mg/g
- M. soleus wet weight (non-operated leg) (Female C57B1/6 mice [1]; [6]): 7.2 mg
- M. soleus wet weight/body weight (non-operated leg) (Female C57B1/6 mice [1]; [6]): 0.33 mg/g
- Gastrocnemius-Plantaris-Soleus muscle weight (whole leg)/body weight (Female C57B1/6 mice [2]; [7]): 5.41 mg/g
- M. gastrocnemius wet weight (Female C57B1/6 mice [2]; [7]): 100.66 mg
- M. gastrocnemius wet weight/body weight (Female C57B1/6 mice [2]; [7]): 4.57 mg/g
- M. plantaris wet weight (Female C57B1/6 mice [2]; [7]): 12.12 mg
- M. plantaris wet weight/body weight (Female C57B1/6 mice [2]; [7]): 0.55 mg/g
- M. soleus wet weight (Female C57B1/6 mice [2]; [7]): 6.29 mg
- M. soleus wet weight/body weight (Female C57B1/6 mice [2]; [7]): 0.29 mg/g
- Mean running time (Female C57B1/6 mice [2]; 300 mg/kg/BW daily by gavage, three weeks, untrained mice, treadmill): 38.70 min
- Gastrocnemius-Plantaris-Soleus muscle weight (whole leg)/body weight (Female C57B1/6 mice [3]; 300 mg/kg/BW daily by gavage): 4.89* mg/g
- M. gastrocnemius wet weight (Female C57B1/6 mice [3]; 300 mg/kg/BW daily by gavage): 86.01* mg
- M. gastrocnemius wet weight/body weight (Female C57B1/6 mice [3]; 300 mg/kg/BW daily by gavage): 4.16* mg/g
- M. plantaris wet weight (Female C57B1/6 mice [3]; 300 mg/kg/BW daily by gavage): 10.53 mg
- M. plantaris wet weight/body weight (Female C57B1/6 mice [3]; 300 mg/kg/BW daily by gavage): 0.51* mg/g
- M. soleus wet weight (Female C57B1/6 mice [3]; 300 mg/kg/BW daily by gavage): 4.62 mg
- M. soleus wet weight/body weight (Female C57B1/6 mice [3]; 300 mg/kg/BW daily by gavage): 0.22 mg/g
- Muscle cross-sectional area (Female C57B1/6 mice [3]; [8]): 27.8 mm^2
- Total leg cross-sectional area (Female C57B1/6 mice [3]; [8]): 30.4 mm^2
- increase of wet weight of the gastrocnemius muscle (relative to the body weight) (Female C57B1/6 mice [3]; trigonelline-hydrochloride 300 mg/kg/BW daily, vs control (FIG. 3), statistically significant): 9%

Compound: C[n+]1cccc(C(=O)[O-])c1 [Trigonelline]
- increase of wet weight of the non-operated gastrocnemius muscle (relative to the body weight) (Female C57B1/6 mice [1]; trigonelline-hydrochloride 300 mg/kg BW daily, vs control (FIG. 2)): 7%
- wet weight of the gastrocnemius muscle vs control (in words) (Female C57B1/6 mice [2]; three weeks treatment, untrained mice (FIG. 4)): equal in both groups
- increase of differentiation in C2C12 mouse myoblast cells (number of myocytes) [4]: 36%
